From PubChem BioAssay (NCI)
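Dose response: 5 concentrations. Exposure: 48 h. Format: 96-well plates. Endpoint: linear interpolation; highest concentration if not reached. The concentration for full growth arrest is given as TGI.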

What was measured:
Assay in all cases: inhibition of tumour cell growth, NCI panel, 48 h
RPMI-8226 leukemia = tested on: RPMI-8226 leukemia
T-47D breast = tested on: T-47D breast
SK-OV-3 ovarian = tested on: SK-OV-3 ovarian
MOLT-4 leukemia = tested on: MOLT-4 leukemia
HCT-116 colon = tested on: HCT-116 colon
A549 NSCLC = tested on: A549 NSCLC
SNB-75 CNS = tested on: SNB-75 CNS
MDA-MB-231 breast = tested on: MDA-MB-231 breast
ACHN renal = tested on: ACHN renal
UACC-62 melanoma = tested on: UACC-62 melanoma
NCI-H226 lung = tested on: NCI-H226 lung
NCI-H522 lung = tested on: NCI-H522 lung
HOP-62 NSCLC = tested on: HOP-62 NSCLC
MALME-3M melanoma = tested on: MALME-3M melanoma
TK-10 renal = tested on: TK-10 renal
LOX IMVI melanoma = tested on: LOX IMVI melanoma
COLO 205 colon = tested on: COLO 205 colon
M14 melanoma = tested on: M14 melanoma
KM12 colon = tested on: KM12 colon
HCC-2998 colon = tested on: HCC-2998 colon
SK-MEL-28 melanoma = tested on: SK-MEL-28 melanoma
HT29 colon = tested on: HT29 colon
MDA-N = tested on: MDA-N
SF-268 CNS = tested on: SF-268 CNS
MCF7 breast = tested on: MCF7 breast
SW-620 colon = tested on: SW-620 colon
SK-MEL-5 melanoma = tested on: SK-MEL-5 melanoma
SF-539 CNS = tested on: SF-539 CNS
CAKI-1 renal = tested on: CAKI-1 renal
DU-145 prostate = tested on: DU-145 prostate
SN12C renal = tested on: SN12C renal
HCT-15 colon = tested on: HCT-15 colon
OVCAR-4 ovarian = tested on: OVCAR-4 ovarian
IGROV1 ovarian = tested on: IGROV1 ovarian
A498 renal = tested on: A498 renal
SR leukemia = tested on: SR leukemia
NCI/ADR-RES ovarian = tested on: NCI/ADR-RES ovarian
OVCAR-8 ovarian = tested on: OVCAR-8 ovarian
U251 CNS = tested on: U251 CNS
786-0 renal = tested on: 786-0 renal
EKVX NSCLC = tested on: EKVX NSCLC
MDA-MB-435 = tested on: MDA-MB-435
RXF 393 renal = tested on: RXF 393 renal
NCI-H23 lung = tested on: NCI-H23 lung
OVCAR-3 ovarian = tested on: OVCAR-3 ovarian
NCI-H460 lung = tested on: NCI-H460 lung
HS 578T breast = tested on: HS 578T breast
UACC-257 melanoma = tested on: UACC-257 melanoma
SF-295 CNS = tested on: SF-295 CNS
PC-3 prostate = tested on: PC-3 prostate
K-562 leukemia = tested on: K-562 leukemia
OVCAR-5 ovarian = tested on: OVCAR-5 ovarian
SNB-19 CNS = tested on: SNB-19 CNS
UO-31 renal = tested on: UO-31 renal
HL-60(TB) leukemia = tested on: HL-60(TB) leukemia
CCRF-CEM leukemia = tested on: CCRF-CEM leukemia
HOP-92 NSCLC = tested on: HOP-92 NSCLC
SK-MEL-2 melanoma = tested on: SK-MEL-2 melanoma

Measured: TGI

CCOC(=O)/C(C#N)=C/c1ccc(CO)o1
not listed: UO-31 renal | HL-60(TB) leukemia | CCRF-CEM leukemia | HOP-92 NSCLC | SK-MEL-2 melanoma
> 100 µM: all other assays above

O=c1[nH]c(=O)n(COCc2ccccc2)c2ccc(Br)cc12
not listed: RPMI-8226 leukemia | T-47D breast | NCI-H522 lung | HOP-62 NSCLC | MALME-3M melanoma | HCC-2998 colon | SF-268 CNS | NCI-H23 lung | HS 578T breast | PC-3 prostate
> 100 µM: all other assays above
